Experimental data: ChEMBL document CHEMBL3714742, “Pyrimido (4,5-b) indole derivatives” (2003)
pIC50: −log10 of the molar value. Calls of active or inactive are those of the source. No rule for the calls is given here.

Key:
Mus musculus [1] = assay: Inhibition of anti-CD3 antibody-induced IFNgamma production in Balb/c mouse dosed intravenously 5 mins before anti-CD3 antibody injection and measured 2 hrs post-challenge by ELISA; type: functional, organism-based
[2] = molecular target: T1, Dual specificity mitogen-activated protein kinase kinase 7 (Homo sapiens, UniProt O14733); assay: Inhibition of GST-tagged human MKK7 expressed in Escherichia coli (BL21(DE3) pLysS) co-expressing human MEKK catalytic domain using biotinylated and GST-tagged rat GST-KN-SAPKalpha substrate incubated for 1 hr by time-resolved fluorescence based assay
T1 sequence (O14733 whole entry): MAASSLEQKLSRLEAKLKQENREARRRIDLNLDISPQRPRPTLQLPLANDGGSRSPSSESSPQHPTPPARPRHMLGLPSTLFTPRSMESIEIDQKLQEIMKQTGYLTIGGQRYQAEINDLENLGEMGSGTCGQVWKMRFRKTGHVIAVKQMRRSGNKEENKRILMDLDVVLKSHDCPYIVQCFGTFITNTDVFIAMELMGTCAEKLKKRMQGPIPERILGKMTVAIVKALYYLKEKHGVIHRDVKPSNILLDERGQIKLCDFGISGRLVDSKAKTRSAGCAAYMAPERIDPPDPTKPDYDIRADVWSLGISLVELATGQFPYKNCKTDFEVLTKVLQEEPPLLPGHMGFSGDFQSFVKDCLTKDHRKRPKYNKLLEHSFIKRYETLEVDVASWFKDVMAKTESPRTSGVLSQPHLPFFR

Mus musculus [3] = assay: Inhibition of anti-CD3 antibody-induced IL2 production in Balb/c mouse dosed intravenously 5 mins before anti-CD3 antibody injection and measured 2 hrs post-challenge by ELISA; type: functional, organism-based
Mus musculus [4] = assay: Inhibition of anti-CD3 antibody-induced IL4 production in Balb/c mouse dosed intravenously 5 mins before anti-CD3 antibody injection and measured 2 hrs post-challenge by ELISA; type: functional, organism-based

| SMILES | inhibition (Mus musculus [1]) | pIC50 [2] | inhibition (Mus musculus [3]) | inhibition (Mus musculus [4]) |
| --- | --- | --- | --- | --- |
| Oc1ccc2[nH]c3ncnc(N4CCCCCC4)c3c2c1 | Active | > 6.00 | Active | Active |
| COC1CCN(c2nc(N)nc3[nH]c4ccc(O)cc4c23)CC1 | Active | > 6.00 | Active | Active |
| CC1CC(C)CN(c2ncnc3[nH]c4ccc(C(N)=O)cc4c23)C1 (centres undefined) | Active | > 6.00 | Active | Active |
| NC(=O)c1ccc2[nH]c3ncnc(NC4CCCCCC4)c3c2c1 | Active | > 6.00 | Active | Active |
| Oc1ccc2[nH]c3ncnc(N4CCC(O)C4)c3c2c1 (centres undefined) | Active | > 6.00 | Active | Active |
| Oc1ccc2[nH]c3ncnc(NC4CCCC4)c3c2c1 | Active | > 6.00 | Active | Active |
| OC[C@H](Cc1ccccc1)Nc1ncnc2[nH]c3ccc(O)cc3c12 | Active | > 6.00 | Active | Active |
| Oc1ccc2[nH]c3ncnc(N4CCC(O)(Cc5ccccc5)CC4)c3c2c1 | Active | > 6.00 | Active | Active |
| OCCC1CCCCN1c1ncnc2[nH]c3ccc(O)cc3c12 (centres undefined) | Active | > 6.00 | Active | Active |
| OCCCCN1CCN(c2ncnc3[nH]c4ccc(O)cc4c23)CC1 | Active | > 6.00 | Active | Active |
| CC(=O)NC1CCN(c2ncnc3[nH]c4ccc(C(N)=O)cc4c23)CC1 | Active | > 6.00 | Active | Active |
| Cc1nc(N2CCC(O)CC2)c2c(n1)[nH]c1ccc(O)cc12 | Active | > 6.00 | Active | Active |
| Oc1ccc2[nH]c3ncnc(N4CCCC(O)C4)c3c2c1 (centres undefined) | Active | > 6.00 | Active | Active |
| NC(=O)c1ccc2[nH]c3ncnc(N4CCC(C(=O)O)CC4)c3c2c1 | Active | > 6.00 | Active | Active |
| NC(=O)c1ccc2[nH]c3ncnc(N4CCC(CO)CC4)c3c2c1 | Active | > 6.00 | Active | Active |
| O=CN1CCN(c2ncnc3[nH]c4ccc(O)cc4c23)CC1 | Active | > 6.00 | Active | Active |
| OCCN(CCO)c1ncnc2[nH]c3ccc(O)cc3c12 | Active | > 6.00 | Active | Active |
| OCC1CCN(c2ncnc3[nH]c4ccc(O)cc4c23)CC1 | Active | > 6.00 | Active | Active |
| CC1CCN(c2nc(N)nc3[nH]c4ccc(O)cc4c23)CC1 | Active | > 6.00 | Active | Active |
| COc1cc2[nH]c3nc(N)nc(N4CCCCC4)c3c2cc1OC | Active | 6.00 | Active | Active |
| CC1CCCCN1c1ncnc2[nH]c3ccc(O)cc3c12 (centres undefined) | Active | > 6.00 | Active | Active |
| Cc1nc(N2CCOCC2)c2c(n1)[nH]c1ccc(O)cc12 | Active | 6.00 | Active | Active |
| Nc1nc(N(Cc2ccccc2)Cc2ccccc2)c2c(n1)[nH]c1ccc(O)cc12 | Active | < 5.00 | Active | Active |
| NC(=O)c1ccc2[nH]c3ncnc(N4CCC(O)CC4)c3c2c1 | Active | > 6.00 | Active | Active |
| NC(=O)c1ccc2[nH]c3ncnc(N4CCCCC4CO)c3c2c1 (centres undefined) | Active | > 6.00 | Active | Active |
| CNC1CCN(c2ncnc3[nH]c4ccc(C(N)=O)cc4c23)C1 (centres undefined) | Active | > 6.00 | Active | Active |
